In ChEMBL document CHEMBL4680193, “Isoindoline scaffold-based dual inhibitors of HDAC6 and HSP90 suppressing the growth of lung cancer in vitro and in vivo” (Eur J Med Chem, 2020):
Calls of active or inactive are those of the source. The rule behind the calls is not given here.

What was measured:
[1] = biological target: T1, Heat shock protein HSP90 (Homo sapiens) (UniProt P07900+P08238); assay: Inhibition of HSP90 in human NCI-H1975 cells assessed as decrease in STAT3 Tyr705 phosphorylation at 3 uM measured after 12 hrs by Western blot analysis; type: cell-based
[2] = system: NCI-H1975; assay: Induction of apoptosis in human NCI-H1975 cells assessed as increase in caspase 3 activation incubated for 48 hrs by PI staining based Western blot analysis; type: functional, cell-based; conditions: dose 0.1-3 µM
[3] = biological target: Histone deacetylase 1 (Homo sapiens, UniProt Q13547); assay: Inhibition of recombinant human C-terminal FLAG-His-tagged HDAC1 (1 to 482 residues) expressed in Sf21 cells using RHK-K(Ac)-AMC as substrate incubated for 60 mins by fluorimetry analysis
[4] = biological target: T1, Heat shock protein HSP90 (Homo sapiens); assay: Inhibition of HSP90 in human NCI-H1975 cells assessed as upregulation of HSP70 expression at 0.03 to 0.3 uM measured upto 24 hrs by Western blot analysis; type: cell-based; conditions: dose 0.03-0.3 µM, time hrs <=24
[5] = system: NCI-H1975; assay: Inhibition of IFN-gamma-induced PD-L1 in human NCI-H1975 cells incubated for 48 hrs by Western blot analysis; type: functional, cell-based; conditions: dose 0.3-3 µM
[6] = species: Homo sapiens; assay: Selectivity index, ratio of IC50 for recombinant human HDAC8 to IC50 for recombinant human HDAC6
[7] = system: NCI-H1975; assay: Induction of cell cycle arrest in human NCI-H1975 cells assessed as increase in subG1 phase at 0.1 to 3 uM incubated for 48 hrs by PI staining based flow cytometry analysis; type: functional; conditions: dose 0.1-3 µM
[8] = system: NCI-H1975; assay: Induction of apoptosis in human NCI-H1975 cells assessed as increase in PARP activation incubated for 48 hrs by PI staining based Western blot analysis; type: functional, cell-based; conditions: dose 0.1-3 µM
[9] = species: Homo sapiens; assay: Selectivity index, ratio of IC50 for recombinant human HDAC3 to IC50 for recombinant human HDAC6
[10] = system: NCI-H1975; assay: Antitumor activity against human NCI-H1975 cells xenografted in BALB/c mouse assessed as reduction in tumor volume at 50 mg/kg, ip administered for 2 weeks and measured after 2 week; type: functional, organism-based
[11] = system: NCI-H1975; assay: Induction of apoptosis in human NCI-H1975 cells assessed as increase in caspase 8 activation incubated for 48 hrs by PI staining based Western blot analysis; type: functional, cell-based; conditions: dose 0.1-3 µM
[12] = system: NCI-H1975; assay: Induction of apoptosis in human NCI-H1975 cells assessed as increase in caspase 9 activation incubated for 48 hrs by PI staining based Western blot analysis; type: functional, cell-based; conditions: dose 0.1-3 µM
[13] = biological target: Histone deacetylase 3 (Homo sapiens, UniProt O15379)
[14] = biological target: T1, Heat shock protein HSP90 (Homo sapiens); assay: Inhibition of HSP90 in human NCI-H1975 cells assessed as downregulation of Akt expression at 0.03 to 0.3 uM measured upto 24 hrs by Western blot analysis; type: cell-based; conditions: dose 0.03-0.3 µM, time hrs <=24
[15] = system: NCI-H1975; assay: Antitumor activity against human NCI-H1975 cells xenografted in BALB/c mouse assessed as reduction in tumor growth at 50 mg/kg, ip administered for 2 weeks in presence of afatinib and measured after 2 week relative to control; type: functional; conditions: 336 h, read-out: TGI
[16] = biological target: T2, Protein deacetylase HDAC6 (Homo sapiens, UniProt Q9UBN7); assay: Inhibition of recombinant human HDAC6 using RHK-K(Ac)-AMC as substrate by fluorescence based assay
T2 sequence (Q9UBN7 whole entry): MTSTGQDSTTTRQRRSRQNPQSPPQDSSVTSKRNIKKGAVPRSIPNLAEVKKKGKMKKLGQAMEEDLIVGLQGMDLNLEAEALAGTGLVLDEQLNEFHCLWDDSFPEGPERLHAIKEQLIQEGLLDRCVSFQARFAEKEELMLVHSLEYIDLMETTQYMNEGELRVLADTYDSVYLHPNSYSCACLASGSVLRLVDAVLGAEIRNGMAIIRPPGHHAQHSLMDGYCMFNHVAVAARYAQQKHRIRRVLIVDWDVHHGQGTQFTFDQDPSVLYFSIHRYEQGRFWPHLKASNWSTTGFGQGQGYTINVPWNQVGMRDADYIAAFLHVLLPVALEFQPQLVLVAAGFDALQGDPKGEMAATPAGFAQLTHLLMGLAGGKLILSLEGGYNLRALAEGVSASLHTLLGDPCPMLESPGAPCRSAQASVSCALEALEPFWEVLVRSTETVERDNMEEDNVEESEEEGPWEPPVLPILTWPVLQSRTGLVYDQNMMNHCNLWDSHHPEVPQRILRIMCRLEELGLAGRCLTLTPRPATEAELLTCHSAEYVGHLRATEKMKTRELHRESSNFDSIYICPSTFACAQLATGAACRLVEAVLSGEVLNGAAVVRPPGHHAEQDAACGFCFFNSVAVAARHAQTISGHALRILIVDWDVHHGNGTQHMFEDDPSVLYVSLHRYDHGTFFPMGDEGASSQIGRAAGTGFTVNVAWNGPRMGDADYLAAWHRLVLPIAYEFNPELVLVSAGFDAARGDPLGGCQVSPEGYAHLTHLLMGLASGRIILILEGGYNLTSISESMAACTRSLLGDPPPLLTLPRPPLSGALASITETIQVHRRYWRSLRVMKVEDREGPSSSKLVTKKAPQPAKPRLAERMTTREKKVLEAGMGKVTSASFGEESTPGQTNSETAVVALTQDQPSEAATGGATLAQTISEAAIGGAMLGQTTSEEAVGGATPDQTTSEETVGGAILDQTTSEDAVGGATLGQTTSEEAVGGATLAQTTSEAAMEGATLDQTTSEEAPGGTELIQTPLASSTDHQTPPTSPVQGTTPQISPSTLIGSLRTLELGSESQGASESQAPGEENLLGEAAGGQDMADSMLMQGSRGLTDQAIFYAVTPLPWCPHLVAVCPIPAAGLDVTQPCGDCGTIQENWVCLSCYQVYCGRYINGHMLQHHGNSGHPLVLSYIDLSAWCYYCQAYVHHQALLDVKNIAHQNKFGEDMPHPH

[17] = biological target: Heat shock protein HSP 90-alpha (Homo sapiens, UniProt P07900); assay: Inhibition of HSP90a (unknown origin)
[18] = system: NCI-H1975; assay: Antitumor activity against human NCI-H1975 cells xenografted in BALB/c mouse assessed as reduction in tumor growth at 100 mg/kg, ip administered for 2 weeks and measured after 2 week relative to control; type: functional; conditions: 336 h, read-out: TGI
[19] = system: NCI-H1975; assay: Induction of apoptosis in human NCI-H1975 cells assessed as increase in gammaH2AX activation incubated for 48 hrs by PI staining based Western blot analysis; type: functional, cell-based; conditions: dose 0.1-3 µM
[20] = biological target: T1, Heat shock protein HSP90 (Homo sapiens); assay: Inhibition of HSP90 in human NCI-H1975 cells assessed as decrease in Akt Ser473 phosphorylation at 3 uM measured after 6 hrs by Western blot analysis; type: cell-based
[21] = system: NCI-H1975; assay: Antitumor activity against human NCI-H1975 cells xenografted in BALB/c mouse assessed as reduction in tumor growth at 50 mg/kg, ip administered for 2 weeks and measured after 2 week relative to control; type: functional; conditions: 336 h, read-out: TGI
[22] = Toxicity in BALB/c mouse xenografted with human NCI-H1975 cells assessed as reduction in body weight 50 to 100 mg/kg, ip administered for 2 weeks and measured after 2 week; type: organism-based; conditions: in vivo, 336 h, dose 50-100 mg/kg

Sequence of Histone deacetylase 3 (O15379 whole entry): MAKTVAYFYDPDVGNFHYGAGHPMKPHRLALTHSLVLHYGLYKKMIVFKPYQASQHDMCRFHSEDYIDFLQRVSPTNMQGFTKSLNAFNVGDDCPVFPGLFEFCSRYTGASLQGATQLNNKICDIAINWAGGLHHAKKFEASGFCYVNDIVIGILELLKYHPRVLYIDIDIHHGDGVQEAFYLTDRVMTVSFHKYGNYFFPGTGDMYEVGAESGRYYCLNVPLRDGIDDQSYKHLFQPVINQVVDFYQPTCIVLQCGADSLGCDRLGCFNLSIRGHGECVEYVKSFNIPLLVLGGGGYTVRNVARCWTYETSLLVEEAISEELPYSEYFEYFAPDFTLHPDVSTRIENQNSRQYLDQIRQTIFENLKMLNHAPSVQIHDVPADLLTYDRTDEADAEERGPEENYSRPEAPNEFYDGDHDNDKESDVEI
Sequence of Histone deacetylase 1 (Q13547 whole entry, the tested form may be a part): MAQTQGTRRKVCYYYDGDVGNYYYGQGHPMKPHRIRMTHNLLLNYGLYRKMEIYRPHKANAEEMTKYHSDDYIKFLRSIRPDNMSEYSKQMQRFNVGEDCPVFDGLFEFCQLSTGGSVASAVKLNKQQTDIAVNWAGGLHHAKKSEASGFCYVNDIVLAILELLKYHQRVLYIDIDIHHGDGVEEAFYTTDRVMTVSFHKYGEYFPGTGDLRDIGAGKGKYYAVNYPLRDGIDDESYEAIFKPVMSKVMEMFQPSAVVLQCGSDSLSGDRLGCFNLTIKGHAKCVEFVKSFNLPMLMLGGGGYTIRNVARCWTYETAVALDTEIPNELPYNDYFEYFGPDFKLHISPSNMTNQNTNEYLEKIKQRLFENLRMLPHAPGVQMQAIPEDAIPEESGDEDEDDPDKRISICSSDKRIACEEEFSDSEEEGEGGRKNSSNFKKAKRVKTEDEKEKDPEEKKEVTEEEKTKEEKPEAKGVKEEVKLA

inhibition [1]: Active | IC50 [3]: 1880 nM | inhibition [4]: Active | Ratio IC50 [6]: 861 | Ratio IC50 [9]: 303 | IC50 [13]: 1310 nM | inhibition [14]: Active | IC50 [16]: 4.32 nM | IC50 [17]: 46.8 nM | inhibition [20]: Active
Compound: CC(C)c1cc(C(=O)N2Cc3ccc(NC(=O)CCCCCCCCC(=O)NO)cc3C2)c(O)cc1O
Activity [2]: Dose-dependent effect | inhibition [5]: Dose-dependent effect | Activity [7]: Active | Activity [8]: Dose-dependent effect | Activity [10]: Active | Activity [11]: Dose-dependent effect | Activity [12]: Dose-dependent effect | inhibition in vivo at 50 mg/kg [15]: 72.3% | inhibition in vivo at 100 mg/kg [18]: 69.7% | Activity [19]: Dose-dependent effect | inhibition in vivo at 50 mg/kg [21]: 44.8% | Activity [22]: Non-Toxic
